Data reported in patent publication US12590118B2, “Salt and crystal form of steroid derivative regulator” (Shanghai Hansoh Biomedical Co., Ltd., priority 2019, dated 2026).

What was measured:
ICR mice = experiment: Forced swimming model in mice; format: in vivo; settings: for Mean (immobility, %) / Mean (immobility, s): dose 10 mpk p.o.; for Mean (immobility, %): floating time/240 s; for Mean (immobility, s): latter four minutes of 6 min swim; for immobility time during the latter four minutes compared with that of the model group: forced swimming, ICR mice
Protocol: The antidepressant effect of the compound was evaluated by the forced swimming model in mice.
Compounds of Examples 1 to 3, Example 9, Example 40, Example 41, Examples 48 to 52, Example 90 and Example 98 of the present invention, prepared by the applicant.
Male ICR mice (25-35 g) were adapted in the experiment environment for 3 days before the forced swimming test.
According to the experiment design, the mice were randomly grouped on the day before the experiment according to body weight, with 12 mice in each group. Before the test, the compounds of each example were administered intragastrically according to the Tmax thereof in the brain in mice pharmacokinetic experiment.
Respectively: • 1) Model group (0.5% CMC-Na-1% Tween 80 solution, p.o., 10 mL/kg); • 2) Compounds of Examples 1 to 3, Example 40, Example 41, Examples 48 to 51, Example 90 and Example 98 (10 mg/kg, p.o., 10 mL/kg); Example 9 and Example 52 (5 mg/kg, p.o., 5 mL/kg).
When being administered, the compounds of each example were suspended in 0.5% CMC-Na+1% Tween 80 solution to the desired concentration.
0.5-1 hour after administration, ICR mice were placed in a forced swimming device (transparent glass drum (water depth 18 cm, water temperature 25-26° C.), one mouse per tank) and forced to swim for 6 minutes. The forced swimming device recorded the floating time of the ICR mice during the entire 6 minutes, and the data of the latter four minutes were used for data analysis. The mice were taken out immediately after the swimming experiment, wiped dry and put back in their original cages.
Note: The criterion for determining the immobility time is that the mouse stops struggling in water and floats, and there are only slight limb movements to keep the head floating on the water.
3.4 Data Analysis Floating time percentage=100*floating time/240 s.

GABA-A receptor = experiment: 35S-TBPS binding assay (GABAA receptor binding ability assay); design: species or system Sprague-Dawley rat; settings: rat cerebral cortex cell membrane, 5 μM GABA, 2 nM 35S-TBPS; read-out: IC50 on inhibiting the TBPS binding activity, 35S-TBPS bindng assay
Protocol: 1. The cerebral cortex of male Sprague-Dawley rat was isolated.
2. A pre-chilled 0.32 M sucrose solution (one tablet of protease inhibitor was added per 100 mL) was added to the cerebral cortex (the volume of sucrose solution was 10 times the volume of the cerebral cortex). The mixture was crushed with a 50 mL glass tissue homogenizer in batches and mixed well.
3. The mixture was centrifuged at 1,500 g, 4° C. for 10 minutes, and the supernatant was collected.
4. The mixture was centrifuged at 20,000 g, 4° C. for 30 minutes, and the supernatant was discarded.
5. The precipitate was resuspended with the pre-chilled phosphate buffer saline (PBS) (one tablet of protease inhibitor was added per 100 mL). An average of 4 mL of PBS was added per rat, and the mixture was mixed well with a glass tissue homogenizer.
6. The mixture was centrifuged at 10,000 g, 4° C. for 10 minutes, and the supernatant was discarded.
7. Steps 5 and 6 were repeated three times.
8. Finally, the precipitate was resuspended with 4 volumes of PBS. The resulting solution was dispensed, frozen in liquid nitrogen, and stored at −80° C.
9. The protein concentration was measured by the bicinchoninic acid (BCA) method.
1. 230 μL of PBS was added to each well of a well plate with 1.1 mL volume.
2. 60 μL of the cerebral cortex cell membrane (5 μg/μL) solution was added to each well, and the mixture was mixed well.
3. The test compound (3 μL per well) was added, and the plate was incubated at 25° C. for 5 minutes. The DMSO concentration was 1%. The initial compound concentration was […], and a
3-fold dilution in gradient was carried out to obtain a total of 8 gradients and 2 replicates. 1% DMSO was used as a negative control, and 10 μM P026-2 was used as a positive control.
4. GABA was added at a final concentration of 5 μM, and incubated at 25° C. for 5 minutes. 1 mM GABA solution was formulated, and 1.5 μL of the solution was added to each well.
5. 35S-TBPS was added at a final concentration of 2 nM. The concentration of isotope mother solution was 9.7 μM. After dilution with PBS for 100 times, 6 μL of the diluted isotope solution was added to each well.
6. The plate was incubated at 4° C. for 20 hours.
7. The FilterMate GF/C plate was pre-treated with 0.5% PEI, and incubated at 4° C. for 1 hour.
8. The FilterMate GF/C plate was washed with Universal Harvester twice, 50 mL PBS each time.
9. The reaction solution was transferred to the GF/C plate, and each well was washed 4 times with 900 μL of PBS.
10. The washed GF/C plate was placed at 55° C. and dried for 10 minutes.
11. 40 μL of scintillation solution was added to each well, and the CPM value was read with TopCount.
In the experiment, the CPM (counts per minute) value was read with TopCount. According to the readings of the High control (DMSO) and the Low control (10 μM of the positive compound) experimental groups, the % inhibition was calculated based on the following formula: % Inhibition=100×(CPMHigh control−CPMsample)/(CPMHigh control−CPMLow control)
The IC50 of the compound was calculated according to the following 4-parameter nonlinear logic formula: Y=Bottom+(Top−Bottom)/(1+10^((Log IC50−X)*HillSlope)),
wherein: • X represents the log of compound concentration, • Y represents the % Inhibition.
The effect of the compound of the present invention on the TBPS binding activity was determined by the above test, and the measured IC50 values are shown in Table 5.

C[C@@]1(O)CC[C@H]2[C@H](CC[C@@H]3[C@@H]2CC[C@@]2(C)[C@H]3[C@H](C3CC3)C[C@@H]2C(=O)Cn2ccc(C#N)n2)C1 [Example 49, 1-(2-((3R,5R,8R,9R,10S,13S,14S,15S,17S)-15-Cyclopropyl-3-hydroxy-3,13-dimethylhexadecahydro-1H-cyclopenta[a]phenanthren-17-yl)-2-oxoethyl)-1H-pyrazole-3-carbonitrile]
Mean (immobility, %) (ICR mice): 35.74%
Mean (immobility, s) (ICR mice): 85.77 s
immobility time during the latter four minutes compared with that of the model group (ICR mice): very significantly different

C[C@@]1(O)CC[C@H]2[C@H](CC[C@@H]3[C@@H]2CC[C@@]2(C)[C@H]3[C@H](C3CC3)C[C@@H]2C(=O)Cn2nccn2)C1 [Example 50, 1-((3R,5R,8R,9R,10S,13S,14S,15S,17S)-15-Cyclopropyl-3-hydroxy-3,13-dimethylhexadecahydro-1H-cyclopenta[a]phenanthren-17-yl)-2-(2H-1,2,3-triazol-2-yl)ethan-1-one]
Mean (immobility, %) (ICR mice): 29.57%
Mean (immobility, s) (ICR mice): 70.96 s
immobility time during the latter four minutes compared with that of the model group (ICR mice): very significantly different

Cc1nnnn1CC(=O)[C@H]1[C@H]2C[C@H]2[C@H]2[C@@H]3CC[C@@H]4C[C@](C)(O)CC[C@@H]4[C@H]3CC[C@@]21C [Example 71, 1-((2R,4aS,4bR,6aS,7S,7aS,8aR,8bR,8cR,10aR)-2-Hydroxy-2,6a-dimethyloctadecahydrocyclopropa[4,5]cyclopenta[1,2-a]phenanthren-7-yl)-2-(5-methyl-1H-tetrazol-1-yl)ethan-1-one]
IC50 (GABA-A receptor): 11.4 nM

C[C@@]1(O)CC[C@H]2[C@H](CC[C@@H]3[C@@H]2CC[C@@]2(C)[C@H]3[C@@H]3C[C@@H]3[C@@H]2C(=O)Cn2cc([N+](=O)[O-])cn2)C1 [Example 73, 1-((2R,4aS,4bR,6aS,7S,7aS,8aR,8bR,8cR,10aR)-2-Hydroxy-2,6a-dimethyloctadecahydrocyclopropa[4,5]cyclopenta[1,2-a]phenanthren-7-yl)-2-(4-nitro-1H-pyrazol-1-yl)ethan-1-one]
IC50 (GABA-A receptor): 10.2 nM

C[C@@]1(O)CC[C@H]2[C@H](CC[C@@H]3[C@@H]2CC[C@@]2(C)[C@H]3[C@@H]3C[C@@H]3[C@@H]2C(=O)Cn2nc(C#N)cc2C#N)C1 [Example 84, 1-(2-((2R,4aS,4bR,6aS,7S,7aS,8aR,8bR,8cR,10aR)-2-Hydroxy-2,6a-dimethyloctadecahydrocyclopropa[4,5]cyclopenta[1,2-a]phenanthren-7-yl)-2-oxoethyl)-1H-pyrazole-3,5-dicarbonitrile]
IC50 (GABA-A receptor): 6.1 nM

C[C@@]1(O)CC[C@H]2[C@H](CC[C@@H]3[C@@H]2CC[C@@]2(C)[C@H]3[C@@H]3C[C@@H]3[C@@H]2C(=O)Cn2cc(-c3ncco3)cn2)C1 [Example 85, 1-((2R,4aS,4bR,6aS,7S,7aS,8aR,8bR,8cR,10aR)-2-Hydroxy-2,6a-dimethyloctadecahydrocyclopropa[4,5]cyclopenta[1,2-a]phenanthren-7-yl)-2-(4-(oxazol-2-yl)-1H-pyrazol-1-yl)ethan-1-one]
IC50 (GABA-A receptor): 15.8 nM

CC[C@@H]1C[C@H](C(=O)Cn2ccc(C(F)(F)F)n2)[C@@]2(C)CC[C@H]3[C@@H](CC[C@@H]4C[C@](C)(O)CC[C@@H]43)[C@H]12 [Example 91, 1-((3R,5R,8R,9R,10S,13S,14S,15R,17S)-15-Ethyl-3-hydroxy-3,13-dimethylhexadecahydro-1H-cyclopenta[a]phenanthren-17-yl)-2-(3-(trifluoromethyl)-1H-pyrazol-1-yl)ethan-1-one]
IC50 (GABA-A receptor): 25.2 nM

CC[C@@H]1C[C@H](C(=O)Cn2nnc(C)n2)[C@@]2(C)CC[C@H]3[C@@H](CC[C@@H]4C[C@](C)(O)CC[C@@H]43)[C@H]12 [Example 92, 1-((3R,5R,8R,9R,10S,13S,14S,15R,17S)-15-Ethyl-3-hydroxy-3,13-dimethylhexadecahydro-1H-cyclopenta[a]phenanthren-17-yl)-2-(5-methyl-2H-tetrazol-2-yl)ethan-1-one]
IC50 (GABA-A receptor): 27 nM

CC[C@@H]1C[C@H](C(=O)Cn2nccn2)[C@@]2(C)CC[C@H]3[C@@H](CC[C@@H]4C[C@](C)(O)CC[C@@H]43)[C@H]12 [Example 94, 1-((3R,5R,8R,9R,10S,13S,14S,15R,17S)-15-Ethyl-3-hydroxy-3,13-dimethylhexadecahydro-1H-cyclopenta[a]phenanthren-17-yl)-2-(2H-1,2,3-triazol-2-yl)ethan-1-one]
IC50 (GABA-A receptor): 23.9 nM

CC[C@@H]1C[C@H](C(=O)Cn2nc(C#N)cc2C#N)[C@@]2(C)CC[C@H]3[C@@H](CC[C@@H]4C[C@](C)(O)CC[C@@H]43)[C@H]12 [Example 95, 1-(2-((3R,5R,8R,9R,10S,13S,14S,15R,17S)-15-Ethyl-3-hydroxy-3,13-dimethylhexadecahydro-1H-cyclopenta[a]phenanthren-17-yl)-2-oxoethyl)-1H-pyrazole-3,5-dicarbonitrile]
IC50 (GABA-A receptor): 16.2 nM

C[C@@]1(O)CC[C@H]2[C@H](CC[C@@H]3[C@@H]2CC[C@@]2(C)[C@H]3[C@H](C3CC3)C[C@@H]2C(=O)Cn2ccc(C(F)(F)F)n2)C1 [Example 97, 1-((3R,5R,8R,9R,10S,13S,14S,15S,17S)-15-Cyclopropyl-3-hydroxy-3,13-dimethylhexadecahydro-1H-cyclopenta[a]phenanthren-17-yl)-2-(3-(trifluoromethyl)-1H-pyrazol-1-yl)ethan-1-one]
IC50 (GABA-A receptor): 18.6 nM

C[C@@]1(O)CC[C@H]2[C@H](CC[C@@H]3[C@@H]2CC[C@@]2(C)[C@H]3[C@H](C3CC3)C[C@@H]2C(=O)Cn2cc(C#N)c(Cl)n2)C1 [Example 99, 3-Chloro-1-(2-((3R,5R,8R,9R,10S,13S,14S,15S,17S)-15-cyclopropyl-3-hydroxy-3,13-dimethylhexadecahydro-1H-cyclopenta[a]phenanthren-17-yl)-2-oxoethyl)-1H-pyrazole-4-carbonitrile]
IC50 (GABA-A receptor): 24.4 nM

CC[C@@H]1C[C@H](C(=O)Cn2ncnn2)[C@@]2(C)CC[C@H]3[C@@H](CC[C@@H]4C[C@](C)(O)CC[C@@H]43)[C@H]12 [Example 100, 1-((3R,5R,8R,9R,10S,13S,14S,15R,17S)-15-Ethyl-3-hydroxy-3,13-dimethylhexadecahydro-1H-cyclopenta[a]phenanthren-17-yl)-2-(2H-tetrazol-2-yl)ethan-1-one]
IC50 (GABA-A receptor): 25.6 nM
